Data as given in PMC12336832, “A key loop in the catalytic pocket of the PL17 family of alginate lyases determines minimal substrate recognition” (The Journal of Biological Chemistry, 2025).

Tests used:
VaAly17B = biological target: T1, VaAly17B (Vibrio alginolyticus, UniProt A0A2I3CRW2); test: TBA assay, TLC, gel filtration HPLC, ESI-MS; type: biochemical; settings: pH 8.0, 200 mM NaCl, 20 °C, 0.3% substrate
T1 construct: gene N646_4460; N-terminal His tag, E. coli BL21(DE3), plasmid pZLZ05; no signal peptide predicted; theoretical 81,023 Da
T1 sequence (A0A2I3CRW2 1-721): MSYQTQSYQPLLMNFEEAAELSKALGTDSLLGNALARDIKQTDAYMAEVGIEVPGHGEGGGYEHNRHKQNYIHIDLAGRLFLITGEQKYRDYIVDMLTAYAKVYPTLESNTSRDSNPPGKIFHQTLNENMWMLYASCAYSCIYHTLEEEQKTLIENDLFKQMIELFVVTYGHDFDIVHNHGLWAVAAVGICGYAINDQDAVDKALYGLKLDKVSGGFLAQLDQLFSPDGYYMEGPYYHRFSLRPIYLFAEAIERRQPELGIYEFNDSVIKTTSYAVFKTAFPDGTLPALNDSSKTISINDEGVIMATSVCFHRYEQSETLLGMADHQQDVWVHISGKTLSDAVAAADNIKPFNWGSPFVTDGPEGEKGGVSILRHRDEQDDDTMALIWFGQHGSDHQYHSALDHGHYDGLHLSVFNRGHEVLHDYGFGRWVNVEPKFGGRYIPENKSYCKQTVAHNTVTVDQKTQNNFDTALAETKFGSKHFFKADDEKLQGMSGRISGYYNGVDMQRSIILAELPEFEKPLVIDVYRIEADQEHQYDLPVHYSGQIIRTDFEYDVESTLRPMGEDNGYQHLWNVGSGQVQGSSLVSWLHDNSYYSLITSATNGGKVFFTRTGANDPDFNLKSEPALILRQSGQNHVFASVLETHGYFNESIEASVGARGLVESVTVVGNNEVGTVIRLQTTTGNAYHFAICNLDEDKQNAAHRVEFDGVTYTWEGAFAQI

VaAly17A = biological target: T2, VaAly17A (Vibrio alginolyticus, UniProt A0A2I3CRJ2); test: TBA assay, TLC, gel filtration HPLC, ESI-MS; type: biochemical; settings: pH 8.0, 200 mM NaCl, 30 °C, 0.3% substrate; exolytic, from the nonreducing end
T2 construct: gene N646_4459; N-terminal His tag, E. coli BL21(DE3), plasmid pZLZ04; no signal peptide predicted; theoretical 81,525 Da
T2 sequence (A0A2I3CRJ2 1-721): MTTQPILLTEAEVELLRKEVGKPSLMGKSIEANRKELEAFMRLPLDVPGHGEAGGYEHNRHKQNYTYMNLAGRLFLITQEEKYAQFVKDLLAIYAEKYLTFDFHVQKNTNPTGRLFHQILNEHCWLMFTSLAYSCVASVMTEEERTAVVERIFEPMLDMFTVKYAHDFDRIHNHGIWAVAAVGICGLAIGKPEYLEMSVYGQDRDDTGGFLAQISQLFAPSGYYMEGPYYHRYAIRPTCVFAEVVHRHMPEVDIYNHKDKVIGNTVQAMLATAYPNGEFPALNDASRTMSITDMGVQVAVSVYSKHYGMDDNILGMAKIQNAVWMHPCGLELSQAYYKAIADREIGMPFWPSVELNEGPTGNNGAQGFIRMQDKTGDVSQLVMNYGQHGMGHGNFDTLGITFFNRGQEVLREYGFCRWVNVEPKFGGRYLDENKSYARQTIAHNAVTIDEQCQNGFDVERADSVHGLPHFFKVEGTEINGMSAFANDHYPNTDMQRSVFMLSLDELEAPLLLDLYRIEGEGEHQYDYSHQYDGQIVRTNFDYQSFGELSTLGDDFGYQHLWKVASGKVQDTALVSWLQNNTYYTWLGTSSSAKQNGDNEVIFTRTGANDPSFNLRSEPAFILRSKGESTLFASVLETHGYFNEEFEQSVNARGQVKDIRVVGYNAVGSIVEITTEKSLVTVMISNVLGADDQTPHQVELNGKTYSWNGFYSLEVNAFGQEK

Row | Structure (SMILES) | specific activity (VaAly17B) | specific activity (VaAly17A)
1 | O=C(O)[C@H]1O[C@@H](O[C@H]2[C@H](O)[C@H](O)C(O)O[C@@H]2C(=O)O)[C@@H](O)[C@@H](O)[C@@H]1O (some centres unmarked) [M2, Dimer-M2] | VaAly17B could degrade M2 into monomers | 
2 | O=C(O)[C@H]1O[C@@H](O[C@H]2[C@H](O)[C@H](O)[C@H](O[C@H]3[C@H](O)[C@H](O)C(O)O[C@@H]3C(=O)O)O[C@@H]2C(=O)O)[C@@H](O)[C@@H](O)[C@@H]1O (some centres unmarked) [M3, Trimer-M3] |  | unsaturated M2 was produced when M3 was used as the substrate
